Test system: Multidrug resistance-associated protein 1
Assay: TP_TRANSPORTER: drug resistance in MRP1-expressing HEK293 cells
Format: functional, cell-based
Conditions: human

Activity	SMILES
substrate []	COc1cc([C@@H]2c3cc4c(cc3[C@@H](O[C@@H]3O[C@@H]5CO[C@@H](C)O[C@H]5[C@H](O)[C@H]3O)[C@H]3COC(=O)[C@H]23)OCO4)cc(OC)c1O [ETOPOSIDE]
substrate []	COc1cccc2c1C(=O)c1c(O)c3c(c(O)c1C2=O)C[C@@](O)(C(=O)CO)C[C@@H]3O[C@H]1C[C@H](N)[C@H](O)[C@H](C)O1 [DOXORUBICIN]
substrate []	CC[C@]1(O)C[C@H]2CN(CCc3c([nH]c4ccccc34)[C@@](C(=O)OC)(c3cc4c(cc3OC)N(C=O)[C@H]3[C@@](O)(C(=O)OC)[C@H](OC(C)=O)[C@]5(CC)C=CCN6CC[C@]43[C@@H]65)C2)C1 [VINCRISTINE]
substrate []	COc1cccc2c1C(=O)c1c(O)c3c(c(O)c1C2=O)C[C@@](O)(C(=O)CO)C[C@@H]3O[C@H]1C[C@H](N)[C@@H](O)[C@H](C)O1 [EPIRUBICIN]

— ChEMBL document CHEMBL2074511, “Molecular cloning and pharmacological characterization of rat multidrug resistance protein 1 (mrp1)” (Drug Metab Dispos, 2003)
